System: MCF-7 breast cancer cell line
Test: MTS antiproliferative assay
Type: cell-based
Conditions: Homo sapiens, MCF7, 72 h
Description: The antiproliferative activities of the compounds were evaluated on the breast cancer cell line MCF-7 (ATCC HTB-22, adherent cells isolated from a person), using an MTS (Promega, Madison, WI, USA) assay according to the manufacturer’s instructions. The MCF-7 cell line was obtained from the American Type Culture Collection (ATCC, Manassas, VA, USA). Cells were cultured in low-glucose Dulbecco’s Modified Eagle’s Medium (DMEM) (Sigma-Aldrich, St. Louis, MO, USA), supplemented with 10% fetal bovine serum (Gibco, Thermo Fisher Scientific, Waltham, MA, USA), 100 U/mL penicillin (Sigma-Aldrich, St. Louis, MO, USA), 100 µg/mL streptomycin (Sigma-Aldrich, St. Louis, MO, USA), and 2 mM L-glutamine (Sigma-Aldrich, St. Louis, MO, USA). The cell line was incubated in a 5% CO2 atmosphere at 37 °C. Cells were plated out in 96-well plates at a density of 2000 cells per well and incubated overnight. The next day, cells were treated with the indicated compounds, positive control (17-DMAG), or vehicle control (0.5% DMSO) and incubated for 72 h. […] Absorbance was measured at 492 nm using a microplate reader (Synergy 4 Hybrid; BioTek, Winooski, VT, USA). […] Statistical significance (p < 0.05) was calculated using a two-tailed Welch’s t-test between treated groups and DMSO. IC50 values are given as averages of the independent measurements and were calculated using GraphPad Prism 8.0 software (San Diego, CA, USA). […]

Row | SMILES | IC50
1 | CCN(CC)CCOc1ccc(Nc2ccc(C(F)(F)F)cc2[N+](=O)[O-])cc1 [Compound 17a, N-(4-(2-(Diethylamino)ethoxy)phenyl)-2-nitro-4-(trifluoromethyl)aniline] | 18.5 ± 1.5 µM
2 | CN(C)CCOc1c(Br)cc(Nc2ccc(C(F)(F)F)cc2[N+](=O)[O-])cc1Br [Compound 18b, 3,5-Dibromo-4-(2-(dimethylamino)ethoxy)-N-(2-nitro-4-(trifluoromethyl)phenyl)aniline] | 11.9 ± 1 µM

— publication PMC9501377, “New Diarylamine KV10.1 Inhibitors and Their Anticancer Potential” (Pharmaceutics, 2022)
